Data as given in article PMC3018327 (Nature immunology, 2010).

What was measured:
[1] = test system: DR1 linked to DM; conditions: leucine zipper dimerization domains attached to DMβ and DRβ chains; cited from earlier work
[2] = test system: DR1; conditions: cited from earlier work
[3] = test system: DR4; conditions: cited from earlier work
[4] = target: HLA-DM (Homo sapiens, UniProt P28067+P28068, N110D/N191D); assay: SPR; conditions: complexes 5 μM injected 2 min, pH 5.35, 15 μl/min, 25 °C, Fig. 4d-f
[5] = test system: DM-DR2 complex; assay: SPR peptide-induced dissociation of the complex of DM and empty DR2; assay type: binding, human; conditions: SPR stage 3, peptide 1 μM, pH 5.35, 30 °C; Fig. 1e

Chain of HLA-DM (P28067 27-233 N191D): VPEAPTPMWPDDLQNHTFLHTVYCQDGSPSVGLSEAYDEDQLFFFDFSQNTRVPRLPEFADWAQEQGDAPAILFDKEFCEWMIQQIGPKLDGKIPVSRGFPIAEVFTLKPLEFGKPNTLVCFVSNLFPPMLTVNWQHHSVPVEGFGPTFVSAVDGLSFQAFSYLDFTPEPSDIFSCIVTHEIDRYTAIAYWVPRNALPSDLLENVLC
Chain of HLA-DM (P28068 19-218 N110D): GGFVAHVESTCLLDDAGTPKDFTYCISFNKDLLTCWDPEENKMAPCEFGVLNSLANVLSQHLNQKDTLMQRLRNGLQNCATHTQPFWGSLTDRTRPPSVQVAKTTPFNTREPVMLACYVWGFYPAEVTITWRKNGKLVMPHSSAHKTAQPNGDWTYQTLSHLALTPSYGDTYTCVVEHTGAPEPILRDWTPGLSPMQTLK

Row | DM binding of DR1 complexes with disulfide-linked HA6 or HA3 peptides [4] | Substance | further results
1 | – | PVSKMRMATPLLMQA [CLIP] | t1/2 of peptide dissociation from DR1 forcibly linked to DM [1]: 10 s; affinity of CLIP for DR1 [2]: high affinity; affinity of CLIP for DR4 [3]: very low affinity
2 | did not permit DM binding | Me-YVCQNTLKLAT [HA3 P1me–P11] | –
3 | not sufficient for DM binding | YVKQNCLKLAT [HA6 P1–P11] | –
4 | rapid binding | VCQNTLKLAT [HA3 P2–P11] | –
5 | not sufficient for DM binding | KYVKQNCLKLAT [HA6 P-1–P11] | –
6 | appeared to slow DM binding | CQNTLKLAT [HA3 P3 P11] | –
7 | – | MBP85-99: high-affinity peptide from myelin basic protein (amino acids 85–99) (PGSRPHLIRLFSRDA; UniProt P02686 85-99, looked up, fragment) | peptide-induced dissociation of DR2 from DM [5]: induced dissociation of DR2 from DM
8 | only low amounts of DM binding | PKAVKQNCLKLAT [HA6 P1A] | –
9 | strong DM binding | VKQNCLKLAT [HA6 P2–P11] | –
